Here are results for 8 molecules from US6436973B1, “LTA4 hydrolase inhibitors” (Bioprojet, priority 1998, dated 2002).

In assay [1] the test system is collagen-induced arthritis. Briefly: Collagen-induced arthritis in the rat (arthritis score). The class given is in vivo, rat "Dark Aganti". Conditions: score at 23rd day. The procedure:
c) Antiarthritic effect Collagen-induced arthritis was induced in the rat “Dark […]” according to the protocol by Kamada et al. (Jpn J. Pharmacol., 1997, 74: 313). The LTA4 hydrolase inhibitors are administered either “preventively” (starting from one day after the collagen), or curatively (during the first pathological manifestations, that is starting from 15 days after the collagen). […] The effect is-compared with that of indomethacin (1.5 mg/kg, p.o.).

The subject of another assay is biosynthesis of LTB4. Briefly: Inhibition of the biosynthesis of LTB4 ex vivo (mouse blood after oral dosing). Type of assay: in vivo. The following applies: mice, blood collected thirty minutes later. The procedure: 3) Inhibition of the biosynthesis of LTB4 ex vivo
The compounds inhibiting LTA4 hydrolase according to the invention are suspended in 1.25% methyl cellulose and administered to mice by the oral route at the dose of 10 mg/kg. Thirty minutes later, the mice are sacrificed and the blood collected over lithium heparinate. The blood is then, as above, incubated for 10 minutes at 37° C. in the presence of LTA4 and then the LTB4 formed is assayed by enzyme-linked immunoassay.

For assay [2], the system named is biosynthesis of LTB4 in the air pouch. Briefly: Inflammation induced by carrageenan in the air pouch model in mice (LTB4 in exudate). Type of assay: in vivo. The procedure:
b) Inflammation induced by carrageenan in the air pouch model in mice
The air pouches are formed in mice according to Dawson et al. (Int. J. Tiss. React., 1991, XIII: 171). On day D, 5 ml of air are injected by the subcutaneous route into the back of the mice. On D+3, the pouch is maintained by reinjecting 3 ml of air. On D+6, either a cyclooxygenase inhibitor (indomethacin 5 mg/kg), or an LTA4 hydrolase inhibitor according to the invention (25 mg/kg), or the two in combination are administered by the oral route. After 1 h, 1 ml of 1% carrageenan is injected into the air pouch. The animals are sacrificed 4 h after the injection of carrageenan. The air pouche is washed with 1 ml of 50 mM potassium phosphate buffer containing 0.15 M NaCl, pH 7.4. The exudate is recovered and centrifuged at 10,000 g for 5 minutes. LTB4 is assayed in the supernatant by enzyme-linked immunoassay.

For assay [3], the target named is T1, human recombinant LTA4 hydrolase (Homo sapiens, UniProt P09960).
T1 construct: made in house; host or cells: E. coli JM109
T1 sequence (P09960 1-611): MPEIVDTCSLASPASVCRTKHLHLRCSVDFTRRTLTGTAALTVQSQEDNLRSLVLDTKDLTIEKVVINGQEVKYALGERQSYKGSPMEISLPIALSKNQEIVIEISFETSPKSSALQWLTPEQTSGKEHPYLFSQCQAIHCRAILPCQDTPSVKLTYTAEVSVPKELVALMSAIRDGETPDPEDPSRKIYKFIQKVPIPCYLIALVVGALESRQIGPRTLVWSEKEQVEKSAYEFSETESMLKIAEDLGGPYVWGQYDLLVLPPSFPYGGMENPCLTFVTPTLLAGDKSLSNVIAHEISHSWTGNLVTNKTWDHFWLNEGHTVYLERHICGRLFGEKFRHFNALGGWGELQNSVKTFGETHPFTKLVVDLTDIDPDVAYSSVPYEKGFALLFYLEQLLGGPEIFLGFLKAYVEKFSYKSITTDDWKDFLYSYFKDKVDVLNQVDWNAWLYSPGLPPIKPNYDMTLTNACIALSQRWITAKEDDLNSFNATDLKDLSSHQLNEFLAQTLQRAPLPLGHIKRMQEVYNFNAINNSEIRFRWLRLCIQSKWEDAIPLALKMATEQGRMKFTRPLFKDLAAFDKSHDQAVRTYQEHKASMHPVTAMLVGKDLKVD
Briefly: Inhibition of the aminopeptidase activity of recombinant LTA4 hydrolase (fluorimetric, Ala-AMC). Type of assay: biochemical. Conditions: human recombinant enzyme, Ala-AMC 25 μM, DTT 10^−5 M, pH 7.4, 37° C. The procedure:
1) Inhibition of the aminopeptidase activity of recombinant LTA4 hydrolase
The compounds were tested using human recombinant LTA4 hydrolase (Minami et al., FEBS Letters, 1988, 229: 279). The LTA4 hydrolase expressed by E. coli JM109 is purified mainly according to Minami et al., (J. Biol. Chem., 1987, 262: 13873).
(§1) The inhibition of the aminopeptidase activity of the enzyme is measured by means of a fluorimetric method in 96-well microplates. The recombinant enzyme (0.5 μg in 50 μl of 50 mM Tris-HCl pH 7.4) is preincubated for 10 minutes at 37° C. in the presence of inhibitor and of dithiothreitol (DTT, 10^−5 M). The substrate alanyl-amido-methylcoumarin (Ala-AMC, 25 μM−Tris HCl 50 mM, pH 7.4) is added and the incubation is continued for 15 minutes at 37° C. The release of AMC is measured by fluorimetry.

The target of assay [4] is T2, LTA4 hydrolase activity in human whole blood (Homo sapiens, UniProt P09960).
T2 construct: from tissue; host or cells: human whole blood collected over sodium heparinate
T2 sequence (P09960 1-611): T1 sequence (P09960 1-611)
Briefly: Inhibition of the biosynthesis of LTB4 in vitro in human whole blood. Type of assay: cell-based. The following applies: LTA4 substrate, LTB4 by enzyme-linked immunoassay. The procedure: 2) Inhibition of the biosynthesis of LTB4 in vitro
The biosynthesis of LTB4 is measured in human whole blood in the presence of inhibitors of LTA4 hydrolase according to the invention. A 50 μl blood sample collected over sodium heparinate is preincubated for 10 minutes at 37° C. in the presence of inhibitor (50 mM Tris-HCl, 0.15 M NaCl, 10^−5 M DTT, pH 7.4).
The LTA4 substrate was freshly prepared by alkaline hydrolysis of LTA4 methyl ester (Cayman Chemical Co., USA). After incubating for 10 minutes in the presence of LTA4 (1 μm in 50 mM Tris-HCl, 0.15 M NaCl, 0.5% BSA, pH 7.4), the reaction is stopped by diluting 1/20 in 0.1 M potassium phosphate buffer containing 1.5 mM […], 0.4 M NaCl, 1 mM EDTA, 0.1% BSA, pH 7.4−4° C.
The LTB4 is assayed by enzyme-linked immunoassay (Cayman Chemical Co, USA).

Assay [5] concerns the target T3, aminopeptidase M (EC 3.4.11.2) (Sus scrofa, UniProt P15145).
T3 construct: purchased Pierce, USA
T3 sequence (P15145 1-963): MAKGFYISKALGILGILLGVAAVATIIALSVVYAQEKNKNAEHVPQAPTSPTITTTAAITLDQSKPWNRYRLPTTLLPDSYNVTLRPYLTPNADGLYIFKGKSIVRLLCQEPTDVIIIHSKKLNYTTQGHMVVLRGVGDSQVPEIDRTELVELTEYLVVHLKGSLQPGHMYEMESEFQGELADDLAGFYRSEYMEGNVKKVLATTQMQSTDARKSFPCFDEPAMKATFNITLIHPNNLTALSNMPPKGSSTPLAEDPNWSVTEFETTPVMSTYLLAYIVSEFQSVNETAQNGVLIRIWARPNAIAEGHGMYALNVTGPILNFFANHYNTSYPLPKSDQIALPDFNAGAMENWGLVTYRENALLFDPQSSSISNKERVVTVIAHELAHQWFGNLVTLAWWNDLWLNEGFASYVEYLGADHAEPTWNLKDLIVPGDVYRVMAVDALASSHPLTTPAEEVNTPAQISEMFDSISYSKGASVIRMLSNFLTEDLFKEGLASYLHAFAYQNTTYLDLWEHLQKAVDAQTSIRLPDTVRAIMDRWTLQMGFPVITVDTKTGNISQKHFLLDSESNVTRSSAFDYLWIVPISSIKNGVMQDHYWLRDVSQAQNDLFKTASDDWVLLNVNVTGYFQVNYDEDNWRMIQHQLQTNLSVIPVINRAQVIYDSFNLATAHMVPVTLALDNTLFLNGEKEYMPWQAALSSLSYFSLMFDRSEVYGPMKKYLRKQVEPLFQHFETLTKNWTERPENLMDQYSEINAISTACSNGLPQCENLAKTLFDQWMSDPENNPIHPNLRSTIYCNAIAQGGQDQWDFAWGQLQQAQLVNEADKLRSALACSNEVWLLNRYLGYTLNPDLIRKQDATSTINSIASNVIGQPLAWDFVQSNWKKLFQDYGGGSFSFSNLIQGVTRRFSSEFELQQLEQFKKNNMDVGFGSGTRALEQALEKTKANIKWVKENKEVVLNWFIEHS
Briefly: Inhibition of membrane aminopeptidase M (same fluorimetric test). Type of assay: biochemical. Conditions: 0.1 μg aminopeptidase M (Pierce). The procedure: as §1
To evaluate the specificity of the compounds according to the invention, some of them were also tested for their capacity to inhibit the activity of membrane aminopeptidase M (EC 3.4.11.2). The same test is carried out with 0.1 μg of aminopeptidase M (Pierce, USA).

The subject of assay [6] is oedema of the leg induced by Zymosan. Briefly: Oedema of the leg induced by Zymosan in mice. Type of assay: in vivo. The following applies: oral route, 30 mg/kg, one hour before zymosan, sacrificed after 4 hours. The procedure: a) Oedema of the leg induced by Zymosan in mice Zymosan is a polysaccharide of the yeast cell membrane. Injected into the leg of animals, it causes a local inflammatory reaction in the form of an oedema. One hour after administration of the inhibitor tested by the oral route to mice, at the dose of 30 mg/kg, 25 μl of zymosan (0.05% in 0.15 M NaCl) are injected into the left hind leg and 25 μl of physiological saline into the right leg as control. The animal is sacrificed after 4 hours, the legs cut at the ankle and weighed in order to evaluate the oedema developed.

The structures appear in SMILES notation. Where a name gives a salt, the structure may show the parent alone.

The Ki is the equilibrium dissociation constant of an inhibitor or competing ligand from its target. As a reminder, the inhibition is the share of the control response that was lost under treatment. The low end stands for a weak effect, the high end for a strong effect.

For `Cl.Cl.NC(CCCCOc1ccccc1)CSSCC(N)CCCCOc1ccccc1` [Example 229, 1,1-dithiobis(2-(R,S)-amino-6-phenoxyhexane) dihydrochloride], the Arthritis score stood at 0.38 ± 0.19 in assay [1] (curative (starting 15 days after collagen), 10 mg/kg i.p. twice/day) and 0 in assay [1] (preventive (starting one day after collagen), 10 mg/kg i.p. twice/day).
On to `Cl.N[C@@H](CS)CCCOc1ccccc1` (racemic) [Example 177, (R,S)-2-amino-5-phenoxy-1-pentanethiol hydrochloride], for which the “Inhibition (%) of the biosynthesis of LTB4 ex vivo” value in the assay with biosynthesis of LTB4 (10 mg/kg) amounted to 68%.
In the case of `COc1ccc2c(c1)c(CC(=O)O)c(C)n2C(=O)c1ccc(Cl)cc1` [indomethacin, reference compound], the “% LTB4 relative to the noninflamed control” value in assay [2] (carrageenan + indomethacin 5 mg/kg oral, 4 h after carrageenan) is “+516%”. Moreover, the Arthritis score in assay [1] (curative, 1.5 mg/kg p.o.) was 1.35 ± 0.61.
In the case of `NC(CS)CCOc1ccccc1` (racemic) [Example 172, (R,S)-2-amino-4-phenoxy-1-butanethiol hydrochloride], the Ki in assay [3] was 15 nM; in assay [4], 190 nM.
`NC(CS)CCCCc1ccccc1` (racemic) [Example 173, (R,S)-2-amino-6-phenyl-1-hexanethiol hydrochloride]: the results for the Ki in assay [3], in assay [5] and in assay [4] were 33 nM, 200 nM and 200 nM, respectively.
For `N[C@@H](CS)CSCc1ccccc1` [Example 23, (S)-2-amino-3-benzylthio-1-propanethiol hydrochloride], the Ki in assay [3] was found to be 62 nM.
`Cl.N[C@@H](CS)CCCCOc1ccccc1` (racemic) [Example 156, (R,S) -2-amino-6-phenoxy-1-hexanethiol hydrochloride]: in assay [6], the “Inhibition (%) of oedema of the leg induced by Zymosan” value is 35%. The “% LTB4 relative to the noninflamed control” value in assay [2] (carrageenan + LTA4 hydrolase inhibitor 25 mg/kg oral, 4 h after carrageenan) was −24%; in assay [2] (carrageenan + indomethacin 5 mg/kg + inhibitor 25 mg/kg in combination, oral) it was −28%.
The molecule `N[C@H](CS)COCc1ccccc1` [Example 24, (S)-2-amino-3-benzyloxy-1-propanethiol hydrochloride] displayed an inhibition at 10 mg/kg with biosynthesis of LTB4 (Mus musculus) of 28%.
